The target of one series is T1, mouse TGR5 receptor (Mus musculus, UniProt Q80SS6).
T1 construct: host or cells: HEK293-EBNA (293 c18, ATCC CRL10852)
T1 sequence (Q80SS6 1-329): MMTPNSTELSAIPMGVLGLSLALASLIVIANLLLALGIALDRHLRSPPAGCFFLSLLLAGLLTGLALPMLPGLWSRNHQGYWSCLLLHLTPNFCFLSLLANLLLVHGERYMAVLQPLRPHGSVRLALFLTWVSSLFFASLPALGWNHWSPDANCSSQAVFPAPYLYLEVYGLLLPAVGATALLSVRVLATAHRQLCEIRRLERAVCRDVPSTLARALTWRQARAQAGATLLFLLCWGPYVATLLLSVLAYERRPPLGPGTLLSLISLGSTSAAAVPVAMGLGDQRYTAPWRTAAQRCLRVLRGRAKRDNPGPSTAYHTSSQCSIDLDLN
As to the kind of experiment: Mouse TGR5 HTRF cAMP production assay (HEK293-EBNA cells, Cisbio cAMP HiRange kit). In kind it is cell-based. To be noted: HEK293-EBNA cells overexpressing mouse TGR5, HTRF cAMP assay. In a few lines: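 HEK293-EBNA cells stably expressing mouse TGR5 (episomal vector) were suspended in serum-free DMEM with 500 μM IBMX and exposed to 12-point half-log compound dilutions for 1 h at room temperature. cAMP was detected by HTRF (d2-cAMP/anti-cAMP cryptate, 1 h, room temperature), giving EC50 from duplicates.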

Series [1] is described as follows: Pharmacokinetic profile in mice after oral gavage. In kind it is in vivo, mouse. The settings on record: mouse; fasted male Hilltop mice, 10 mg/kg oral gavage, plasma; read-out: Cmax. The essentials: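 Fasted 8-week male Hilltop mice given 10 mg/kg orally in 20% PEG400/80% 0.5% CMC + 0.25% Tween-80. EDTA plasma sampled 0-4 h, measured by LC-MS/MS (MRM, positive ion); Cmax and AUC derived non-compartmentally, values being means of three mice.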

pEC50: −log10 of the molar value.

As to `N#Cc1ccc(CCNC(=O)[C@@H]2CCN2c2cc(N3CCC(CCNC(=O)NCCOCCNC(=O)NCCC(=O)O)CC3)nc(C(F)(F)F)n2)cc1` [Compound 360, (S)-1-(1-(6-(2-((4-cyanophenethyl)carbamoyl)azetidin-1-yl)-2-(trifluoromethyl)pyrimidin-4-yl)piperidin-4-yl)-4,12-dioxo-8-oxa-3,5,11,13-tetraazahexadecan-16-oic acid], the pEC50 at mouse TGR5 receptor is above 7.00. Also, in series [1], the Cmax amounted to 0.5 ng/mL.
`N#Cc1ccc(CCNC(=O)[C@@H]2CCCN2c2cc(N3CCC(CCNc4c(NCCC(=O)O)c(=O)c4=O)CC3)nc(C(F)(F)F)n2)cc1` [Compound 368, (S)-3-((2-((2-(1-(6-(2-((4-cyanophenethyl)carbamoyl)pyrrolidin-1-yl)-2-(trifluoromethyl)pyrimidin-4-yl)piperidin-4-yl)ethyl)amino)-3,4-dioxocyclobut-1-en-1-yl)amino)propanoic acid] showed a pEC50 on mouse TGR5 receptor above 7.00. Besides, the Cmax in series [1] was determined as 2.5 ng/mL.
On mouse TGR5 receptor, `N#Cc1ccc(CCNC(=O)[C@@H]2CCN2c2cc(N3CCC(CCNC(=O)NCCOCCNC(=O)NCCS(=O)(=O)O)CC3)nc(C(F)(F)F)n2)cc1` [Compound 358, (S)-15-(1-(6-(2-((4-cyanophenethyl)carbamoyl)azetidin-1-yl)-2-(trifluoromethyl)pyrimidin-4-yl)piperidin-4-yl)-4,12-dioxo-8-oxa-3,5,11,13-tetraazapentadecane-1-sulfonic acid] showed a pEC50 above 7.00. Moreover, the Cmax in series [1] is 3.4 ng/mL.
The corresponding values for `N#Cc1ccc(CCNC(=O)[C@@H]2CCCN2c2cc(N3CCC(CCNC(=O)NCCS(=O)(=O)NCC(=O)O)CC3)nc(C(F)(F)F)n2)cc1` [Compound 107] are above 7.00 and 0.4 ng/mL.
For `NS(=O)(=O)CCNC(=O)CCCC1CCN(c2cc(N3CCC[C@H]3C(=O)NCCc3ccc(C(F)(F)F)cc3)nc(C(F)(F)F)n2)CC1` [Compound 59, (S)-1-(6-(4-(4-oxo-4-((2-sulfamoylethyl)amino)butyl)piperidin-1-yl)-2-(trifluoromethyl)pyrimidin-4-yl)-N-(4-(trifluoromethyl)phenethyl)-pyrrolidine-2-carboxamide], in that order: above 7.00 and 43 ng/mL.
In the case of `N#Cc1ccc(CCNC(=O)[C@@H]2CCN2c2cc(N3CCC(CCCC(=O)NCCCCNC(=N)N)CC3)nc(C(F)(F)F)n2)cc1` [Compound 283, (S)-N-(4-cyanophenethyl)-1-(6-(4-(4-((4-guanidinobutyl)amino)-4-oxobutyl)piperidin-1-yl)-2-(trifluoromethyl)pyrimidin-4-yl)azetidine-2-carboxamide], the pEC50 on mouse TGR5 receptor is above 7.00. For the same compound, the Cmax in series [1] worked out at 2.7 ng/mL.
The corresponding values for `N#Cc1ccc(CCNC(=O)[C@@H]2CCCN2c2cc(N3CCC(CCCC(=O)NCCS(=O)(=O)NCC(=O)O)CC3)nc(C(F)(F)F)n2)cc1` [Compound 115, (S)-2-(2-(4-(1-(6-(2-((4-cyanophenethyl)carbamoyl)pyrrolidin-1-yl)-2-(trifluoromethyl)pyrimidin-4-yl)piperidin-4-yl)butanamido)-ethylsulfonamido)acetic acid] are above 7.00 and 2.7 ng/mL.
`N#Cc1ccc(CCNC(=O)[C@@H]2CCCN2c2cc(N3CCC(OCC#CCS(=O)(=O)O)CC3)nc(C(F)(F)F)n2)cc1` [Compound 134, (S)-4-((1-(6-(2-((4-cyanophenethyl)carbamoyl)pyrrolidin-1-yl)-2-(trifluoromethyl)pyrimidin-4-yl)piperidin-4-yl)oxy)but-2-yne-1-sulfonic acid] gave a pEC50 at mouse TGR5 receptor above 7.00. Besides, the Cmax in series [1] worked out at 22 ng/mL.
For the compound `N#Cc1ccc(CCNC(=O)[C@@H]2CCN2c2cc(N3CCC(CCNc4c(NCC(=O)O)c(=O)c4=O)CC3)nc(C(F)(F)F)n2)cc1` [Compound 302, (S)-2-((2-((2-(1-(6-(2-((4-cyanophenethyl)carbamoyl)azetidin-1-yl)-2-(trifluoromethyl)pyrimidin-4-yl)piperidin-4-yl)ethyl)amino)-3,4-dioxocyclobut-1-en-1-yl)amino)acetic acid], the negative logarithm of the EC50 (pEC50) at mouse TGR5 receptor is above 7.00. Besides, the maximum concentration (Cmax) in series [1] was 3.7 ng/mL.
For `N#Cc1ccc(CCNC(=O)[C@@H]2CCN2c2cc(N3CCC(CCCC(=O)NCP(=O)(O)O)CC3)nc(C(F)(F)F)n2)cc1` [Compound 362, (S)-((4-(1-(6-(2-((4-cyanophenethyl)carbamoyl)azetidin-1-yl)-2-(trifluoromethyl)pyrimidin-4-yl)piperidin-4-yl)butanamido)methyl)phosphonic acid], in that order: above 7.00 and 36 ng/mL.
Compound `O=C(O)CCC1CCN(c2cc(N3CC[C@H]3C(=O)NCCc3ccc(C(F)(F)F)cc3)nc(C(F)(F)F)n2)CC1` [Compound 232, (S)-3-(1-(2-(trifluoromethyl)-6-(2-((4-(trifluoromethyl)phenethyl)carbamoyl)azetidin-1-yl)pyrimidin-4-yl)piperidin-4-yl)propanoic acid] gave a pEC50 at mouse TGR5 receptor above 7.00. Also, in series [1], the Cmax was determined as 64 ng/mL.
For `N#Cc1ccc(CCNC(=O)[C@@H]2CCN2c2cc(N3CCC(CCCC(=O)NCCNC(=N)N)CC3)nc(C(F)(F)F)n2)cc1` [Compound 282, (S)—N-(4-cyanophenethyl)-1-(6-(4-(4-((2-guanidinoethyl)amino)-4-oxobutyl)piperidin-1-yl)-2-(trifluoromethyl)pyrimidin-4-yl)azetidine-2-carboxamide], in that order: above 7.00 and 4.2 ng/mL.
For `N#Cc1ccc(CCNC(=O)[C@@H]2CCN2c2cc(N3CCC(CCNS(=O)(=O)CCNC(=O)[C@@H](N)CS(=O)(=O)O)CC3)nc(C(F)(F)F)n2)cc1` [Compound 363, (R)-2-amino-3-((2-(N-(2-(1-(6-((S)-2-((4-cyanophenethyl)carbamoyl)azetidin-1-yl)-2-(trifluoromethyl)pyrimidin-4-yl)piperidin-4-yl)ethyl)sulfamoyl)ethyl)amino)-3-oxopropane-1-sulfonic acid], in that order: above 7.00 and 0.5 ng/mL.
For `N#Cc1ccc(CCNC(=O)[C@@H]2CCCN2c2cc(N3CCC(CCCNC(=O)NCC(=O)O)CC3)nc(C(F)(F)F)n2)cc1` [Compound 121, (S)-2-(3-(3-(1-(6-(2-((4-cyanophenethyl)carbamoyl)pyrrolidin-1-yl)-2-(trifluoromethyl)pyrimidin-4-yl)piperidin-4-yl)propyl)ureido)acetic acid], the pEC50 at mouse TGR5 receptor was above 7.00. The Cmax in series [1] was 235 ng/mL.
The corresponding values for `CN(C)CCC1CCN(c2cc(N3CCC[C@H]3C(=O)NCCc3ccc(C(F)(F)F)cc3)nc(C(F)(F)F)n2)CC1` [Compound 5] are above 7.00 and 338 ng/mL.
`N#Cc1ccc(CCNC(=O)[C@@H]2CCCN2c2cc(N3CCC(CCN)CC3)nc(C(F)(F)F)n2)cc1` [Compound 50, (S)-1-(6-(4-(2-aminoethyl)piperidin-1-yl)-2-(trifluoromethyl)pyrimidin-4-yl)-N-(4-cyanophenethyl)pyrrolidine-2-carboxamide]: in series [1], the Cmax was 214 ng/mL.
As to `N#Cc1ccc(CCNC(=O)[C@@H]2CCCN2c2cc(N3CCC(CCNc4c(NCCS(=O)(=O)O)c(=O)c4=O)CC3)nc(C(F)(F)F)n2)cc1` [Compound 367, (S)-2-((2-((2-(1-(6-(2-((4-cyanophenethyl)carbamoyl)pyrrolidin-1-yl)-2-(trifluoromethyl)pyrimidin-4-yl)piperidin-4-yl)ethyl)amino)-3,4-dioxocyclobut-1-en-1-yl)amino)ethanesulfonic acid], the pEC50 on mouse TGR5 receptor is above 7.00. In series [1], the Cmax turned out to be 1.5 ng/mL.
For `N#Cc1ccc(CCNC(=O)[C@@H]2CCCN2c2cc(-c3ccc(CCC(=O)NCS(=O)(=O)O)cc3)cc(C(F)(F)F)n2)cc1` [Compound 206, (S)-(3-(4-(2-(2-((4-cyanophenethyl)carbamoyl)pyrrolidin-1-yl)-6-(trifluoromethyl)pyridin-4-yl)phenyl)propanamido)methanesulfonic acid], in that order: above 7.00 and 3.8 ng/mL.
On to `N#Cc1ccc(CCNC(=O)[C@@H]2CCCN(c3cc(N4CCC(CO)CC4)nc(C(F)(F)F)n3)C2)cc1` [Compound 308, (R)—N-(4-cyanophenethyl)-1-(6-(4-(hydroxymethyl)piperidin-1-yl)-2-(trifluoromethyl)pyrimidin-4-yl)piperidine-3-carboxamide], for which the Cmax in series [1] worked out at 18 ng/mL.
For `COCC1CCN(c2cc(N3CCC[C@H]3C(=O)NCCc3ccc(C#N)cc3)nc(C(F)(F)F)n2)CC1` [Compound 24], the Cmax in series [1] came out at 970 ng/mL.
The same measure, in the same setting: under `N#Cc1ccc(CCNC(=O)[C@@H]2CCCN2c2cc(N3CCC(CCO)CC3)nc(C(F)(F)F)n2)cc1` [Compound 22] stands 171 ng/mL; under `N#Cc1ccc(CCNC(=O)[C@@H]2CCN2c2cc(N3CCC(CO)CC3)nc(C(F)(F)F)n2)cc1` [Compound 219, (S)—N-(4-cyanophenethyl)-1-(6-(4-(hydroxymethyl)piperidin-1-yl)-2-(trifluoromethyl)pyrimidin-4-yl)azetidine-2-carboxamide], 75 ng/mL.

The values above are taken from patent US10654834B2 (Venenum Biodesign, LLC, priority 2016, dated 2020).
